# Patent US20210308089A1, “METHODS OF TREATING AND/OR PREVENTING VIRAL INFECTIONS AND/OR DISEASES CAUSED BY VIRUSES IN A SUBJECT IN NEED THEREOF” (priority 2020, published 2021)
# System: patients of the REDUCE-IT and earlier EPA placebo-controlled trials
# Assay: Example 3: adverse events by risk ratio, icosapent ethyl vs placebo (candidate categories; infectious disease terms of interest)
# Conditions: ISS
compound,measurement,setting,value
"CC/C=C\C/C=C\C/C=C\C/C=C\C/C=C\CCCC(=O)OCC [icosapent ethyl, eicosapentaenoic acid ethyl ester]",AR: Cholesterol Increased (AE table),,0.9%
same,"AR: Chorea, Related (AE table)",,0.7%
same,"AR: Constipation, Related (AE table)",,0.5%
same,"AR: Diarrhea, Any Severity (AE table)",,9.8%
same,"AR: Diarrhea, Mild Severity (AE table)",,7.4%
same,"AR: Diarrhea, Related (AE table)",,8.4%
same,"AR: Flatulence, Any Severity (AE table)",,1.1%
same,"AR: Flatulence, Mild Severity (AE table)",,0.9%
same,"AR: Flatulence, Related (AE table)",,1.1%
same,"AR: Frequent Bowel Movements, Any Severity (AE table)",,0.2%
same,"AR: Frequent Bowel Movements, Mild Severity (AE table)",,0.2%
same,"AR: Frequent Bowel Movements, Related (AE table)",,0.2%
same,AR: Hot Flush (AE table),,0.6%
same,"AR: Huntington's Chorea, Any Severity (AE table)",,1.0%
same,"AR: Huntington's Chorea, Mild Severity (AE table)",,0.8%
same,AR: Menorrhagia (AE table),,0.4%
same,"AR: Muscle spasms, Related (AE table)",,0.2%
same,"AR: Nasopharyngitis, Any Severity (AE table)",,4.3%
same,"AR: Nasopharyngitis, Mild Severity (AE table)",,3.3%
same,AR: Urine Protein Present (AE table),,0.1%
same,"AR: Weight loss, Related (AE table)",,0.3%
same,ARR: Cholesterol Increased (AE table),,−1.4%
same,"ARR: Chorea, Related (AE table)",,−0.5%
same,"ARR: Constipation, Related (AE table)",,−0.8%
same,"ARR: Diarrhea, Any Severity (AE table)",,−1.6%
same,"ARR: Diarrhea, Mild Severity (AE table)",,−2.2%
same,"ARR: Diarrhea, Related (AE table)",,−1.5%
same,"ARR: Flatulence, Any Severity (AE table)",,−0.8%
same,"ARR: Flatulence, Mild Severity (AE table)",,−0.8%
same,"ARR: Flatulence, Related (AE table)",,−0.8%
same,"ARR: Frequent Bowel Movements, Any Severity (AE table)",,−0.6%
same,"ARR: Frequent Bowel Movements, Mild Severity (AE table)",,−0.4%
same,"ARR: Frequent Bowel Movements, Related (AE table)",,−0.6%
same,ARR: Hot Flush (AE table),,−0.3%
same,"ARR: Huntington's Chorea, Any Severity (AE table)",,−1.3%
same,"ARR: Huntington's Chorea, Mild Severity (AE table)",,−0.9%
same,ARR: Menorrhagia (AE table),,−0.6%
same,"ARR: Muscle spasms, Related (AE table)",,−0.0%
same,"ARR: Nasopharyngitis, Any Severity (AE table)",,−2.3%
same,"ARR: Nasopharyngitis, Mild Severity (AE table)",,−2.3%
same,ARR: Urine Protein Present (AE table),,−0.2%
same,"ARR: Weight loss, Related (AE table)",,−0.4%
same,NNT: Cholesterol Increased (AE table),,69
same,"NNT: Chorea, Related (AE table)",,187
same,"NNT: Constipation, Related (AE table)",,122
same,"NNT: Diarrhea, Any Severity (AE table)",,61
same,"NNT: Diarrhea, Mild Severity (AE table)",,45
same,"NNT: Diarrhea, Related (AE table)",,65
same,"NNT: Flatulence, Any Severity (AE table)",,121
same,"NNT: Flatulence, Mild Severity (AE table)",,129
same,"NNT: Flatulence, Related (AE table)",,121
same,"NNT: Frequent Bowel Movements, Any Severity (AE table)",,173
same,"NNT: Frequent Bowel Movements, Mild Severity (AE table)",,259
same,"NNT: Frequent Bowel Movements, Related (AE table)",,173
same,NNT: Hot Flush (AE table),,292
same,"NNT: Huntington's Chorea, Any Severity (AE table)",,77
same,"NNT: Huntington's Chorea, Mild Severity (AE table)",,109
same,NNT: Menorrhagia (AE table),,159
same,"NNT: Muscle spasms, Related (AE table)",,2007
same,"NNT: Nasopharyngitis, Any Severity (AE table)",,43
same,"NNT: Nasopharyngitis, Mild Severity (AE table)",,43
same,NNT: Urine Protein Present (AE table),,519
same,"NNT: Weight loss, Related (AE table)",,230
same,Risk Ratio (95% CI): Cholesterol Increased (AE table),,0.165 (0.036 to 0.759) 5
same,"Risk Ratio (95% CI): Chorea, Related (AE table)",,0.445(0.107 to 1.853) 3
same,"Risk Ratio (95% CI): Constipation, Related (AE table)",,0.148 (0.017 to 1.265) 5
same,"Risk Ratio (95% CI): Diarrhea, Any Severity (AE table)",,0.847 (0.603 to 1.191) 1
same,"Risk Ratio (95% CI): Diarrhea, Mild Severity (AE table)",,0.741 (0.498 to 1.103) 2
same,"Risk Ratio (95% CI): Diarrhea, Related (AE table)",,0.834 (0.575 to 1.210) 1
same,"Risk Ratio (95% CI): Flatulence, Any Severity (AE table)",,0.463 (0.152 to 1.408) 3
same,"Risk Ratio (95% CI): Flatulence, Mild Severity (AE table)",,0.424 (0.125 to 1.440) 3
same,"Risk Ratio (95% CI): Flatulence, Related (AE table)",,0.463 (0.152 to 1.408) 3
same,"Risk Ratio (95% CI): Frequent Bowel Movements, Any Severity (AE table)",,[0 drug vs 3 PBO]
same,"Risk Ratio (95% CI): Frequent Bowel Movements, Mild Severity (AE table)",,[0 drug vs 2 PBO]
same,"Risk Ratio (95% CI): Frequent Bowel Movements, Related (AE table)",,[0 drug vs 3 PBO]
same,Risk Ratio (95% CI): Hot Flush (AE table),,0.556 (0.125 to 2.474) 3
same,"Risk Ratio (95% CI): Huntington's Chorea, Any Severity (AE table)",,0.247 (0.067 to 0.908) 4
same,"Risk Ratio (95% CI): Huntington's Chorea, Mild Severity (AE table)",,0.318 (0.083 to 1.223) 4
same,Risk Ratio (95% CI): Menorrhagia (AE table),,0.185 (0.021 to 1.653) 5
same,"Risk Ratio (95% CI): Muscle spasms, Related (AE table)",,0.741 (0.046 to 11.826) 2
same,"Risk Ratio (95% CI): Nasopharyngitis, Any Severity (AE table)",,0.588 (0.344 to 1.004) 3
same,"Risk Ratio (95% CI): Nasopharyngitis, Mild Severity (AE table)",,0.494 (0.265 to 0.921) 3
same,Risk Ratio (95% CI): Urine Protein Present (AE table),,[0 drug vs 1 PBO]
same,"Risk Ratio (95% CI): Weight loss, Related (AE table)",,0.247 (0.026 to 2.369) 4
same,ARR,"Chorea, Related",−0.5%
same,NNT,"Chorea, Related",187
same,Risk Ratio (95% CI),"Chorea, Related",0.445 (0.107 to 1.853) 3
same,ARR,"Constipation, Related",−0.8%
same,NNT,"Constipation, Related",122
same,Risk Ratio (95% CI),"Constipation, Related",0.148 (0.017 to 1.265) 5
same,ARR,Cough,0.9%
same,NNT,Cough,−112
same,Risk Ratio (95% CI),Cough,1.928 (0.692 to 5.373) −3
same,ARR,"Diarrhea, Any Severity",−1.6%
same,NNT,"Diarrhea, Any Severity",61
same,Risk Ratio (95% CI),"Diarrhea, Any Severity",0.847 (0.603 to 1.191) 1
same,ARR,"Diarrhea, Mild Severity",−2.2%
same,NNT,"Diarrhea, Mild Severity",45
same,Risk Ratio (95% CI),"Diarrhea, Mild Severity",0.741 (0.498 to 1.103) 2
same,ARR,"Diarrhea, Related",−1.5%
same,NNT,"Diarrhea, Related",65
same,Risk Ratio (95% CI),"Diarrhea, Related",0.834 (0.575 to 1.210) 1
same,ARR,"Flatulence, Any Severity",−0.8%
same,NNT,"Flatulence, Any Severity",121
same,Risk Ratio (95% CI),"Flatulence, Any Severity",0.463 (0.152 to 1.408) 3
same,ARR,"Flatulence, Mild Severity",−0.8%
